Experiments:
[1] = molecular target: T1, human progesterone hormone receptor (hPR) (Homo sapiens, UniProt P06401); test: Receptor binding (human), inhibition of [^3 H]-R5020 binding; details: cytosol from human T-47D cells; 0.4 nM [^3 H]-R5020; 4 hours at 4° C.
T1 construct: The receptor was obtained in cytosol from human T-47D breast cells; endogenous in cells; host or cells: T-47D human breast cells (cytosol)
T1 sequence (P06401 1-933): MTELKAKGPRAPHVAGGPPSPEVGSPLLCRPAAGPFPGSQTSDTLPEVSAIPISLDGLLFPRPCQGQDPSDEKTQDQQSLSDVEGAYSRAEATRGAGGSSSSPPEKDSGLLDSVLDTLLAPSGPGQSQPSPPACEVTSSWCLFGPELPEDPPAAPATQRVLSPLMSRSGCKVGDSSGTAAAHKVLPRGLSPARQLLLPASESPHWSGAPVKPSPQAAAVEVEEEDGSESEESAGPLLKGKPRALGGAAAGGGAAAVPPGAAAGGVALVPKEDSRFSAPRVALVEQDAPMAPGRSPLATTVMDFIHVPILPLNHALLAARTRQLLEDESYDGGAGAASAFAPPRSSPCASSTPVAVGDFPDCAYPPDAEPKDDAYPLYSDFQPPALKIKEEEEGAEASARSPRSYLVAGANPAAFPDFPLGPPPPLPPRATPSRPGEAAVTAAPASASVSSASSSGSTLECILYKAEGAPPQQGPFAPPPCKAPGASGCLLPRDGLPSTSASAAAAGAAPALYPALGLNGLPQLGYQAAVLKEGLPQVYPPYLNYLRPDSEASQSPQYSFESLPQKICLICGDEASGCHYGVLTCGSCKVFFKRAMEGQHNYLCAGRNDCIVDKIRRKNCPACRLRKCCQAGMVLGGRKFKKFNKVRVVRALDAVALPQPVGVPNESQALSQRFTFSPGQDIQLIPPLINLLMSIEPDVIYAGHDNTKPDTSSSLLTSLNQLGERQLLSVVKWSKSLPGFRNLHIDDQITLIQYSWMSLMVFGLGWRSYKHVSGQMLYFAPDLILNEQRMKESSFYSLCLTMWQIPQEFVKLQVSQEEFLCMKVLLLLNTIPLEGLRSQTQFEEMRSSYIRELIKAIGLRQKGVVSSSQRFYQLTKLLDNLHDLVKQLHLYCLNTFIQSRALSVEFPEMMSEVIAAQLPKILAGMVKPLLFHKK
Method: The affinity of the compounds for hormone receptors for progestins and glucocorticoids from rabbits was determined by standard procedures similar to those that have been described in C. E. Cook, et al., Human Reproduction, Volume 9, supplement 1, pp. 32-39 (1994). However, the source of the glucocorticoid receptor was the thymus of the estrogen-primed immature female rabbit. The affinity of the compounds for the human progesterone hormone receptor was determined by standard procedures similar to those that have been described in Horwitz, et al., Cell, 28: 633-42 (1982) and Mockus, et al., Endocrinology, 110: 1564-71 (1982). The receptor was obtained in cytosol from human T-47D breast cells and [^3 H]-R5020 was used as the radioligand. T47D cells (1 billion/mL) were homogenized in TEDG buffer (10 mM Tris, 1.5 mM EDTA, 1 mM dithiothreitol, 1 mM sodium molybdate, and 10% glycerol) using a Dounce pestle A, and the homogenate was centrifuged at 34,000×g for 1 hour. The supernatant was stored at -80° C. An aliquot of receptor preparation was combined with test compound, 0.4 nM [^3 H]-R5020, and TEDG buffer to a final volume of 150 ,μL and incubated for 4 hours at 4° C. in microtiter plates. At the end of incubation 40 μL 40% polyethylene glycol and 15 μL 1% human gamma globulin was added to the incubate and the contents of each well were harvested onto double thick B filter mats (Wallac LKB) using a TomTec harvester. A film of Meltilux scintillant wax was applied to the dried filter mats and the mats were counted in a scintillation counter to determine inhibition of [^3 H]-R5020 binding. Data are expressed as lC50 values, i.e., the concentration of compound that inhibits radioligand binding by 50%.

progestin receptor (rPR) = molecular target: T2, progestin receptor (rPR) (Oryctolagus cuniculus, UniProt P06186); test: Receptor binding (rabbit), progestin receptor; details: for Ratio PR/GR: ratio of rPR to rGR relative affinities; for Relative Binding Affinity, rPR, Relative Affinity (Progesterone): relative to progesterone = 100, rabbit progestin receptor
T2 construct: hormone receptors for progestins and glucocorticoids from rabbits; from tissue; host or cells: rabbit
T2 sequence (P06186 1-930): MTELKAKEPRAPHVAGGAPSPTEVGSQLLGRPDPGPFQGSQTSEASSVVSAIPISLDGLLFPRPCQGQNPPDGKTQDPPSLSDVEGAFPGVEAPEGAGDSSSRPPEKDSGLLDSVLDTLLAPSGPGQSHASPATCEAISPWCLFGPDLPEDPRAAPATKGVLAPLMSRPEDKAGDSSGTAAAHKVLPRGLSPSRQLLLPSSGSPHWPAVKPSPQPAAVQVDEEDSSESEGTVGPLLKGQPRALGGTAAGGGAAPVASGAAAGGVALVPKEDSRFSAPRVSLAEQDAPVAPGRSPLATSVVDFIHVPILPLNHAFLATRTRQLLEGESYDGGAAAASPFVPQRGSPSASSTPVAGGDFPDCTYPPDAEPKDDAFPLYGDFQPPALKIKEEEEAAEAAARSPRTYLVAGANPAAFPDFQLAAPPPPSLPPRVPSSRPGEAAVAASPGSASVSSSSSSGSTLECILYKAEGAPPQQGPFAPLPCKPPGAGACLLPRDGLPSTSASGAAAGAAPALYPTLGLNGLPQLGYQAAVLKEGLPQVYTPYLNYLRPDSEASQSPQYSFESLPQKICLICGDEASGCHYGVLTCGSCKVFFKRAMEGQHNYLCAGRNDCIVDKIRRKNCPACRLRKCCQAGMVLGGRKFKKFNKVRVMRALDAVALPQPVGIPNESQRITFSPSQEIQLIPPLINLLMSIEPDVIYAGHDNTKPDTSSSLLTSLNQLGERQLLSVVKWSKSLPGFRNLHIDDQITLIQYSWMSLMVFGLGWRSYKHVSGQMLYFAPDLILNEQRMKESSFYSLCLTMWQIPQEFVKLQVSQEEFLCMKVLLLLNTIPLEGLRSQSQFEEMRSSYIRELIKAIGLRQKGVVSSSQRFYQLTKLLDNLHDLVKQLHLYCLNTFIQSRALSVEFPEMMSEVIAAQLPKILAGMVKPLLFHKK

human T-47D breast cells = test: T47D cell proliferation, antagonist format (inhibition of R5020-mediated [^3 H]-thymidine incorporation); type: cell-based; details: for EC50: Homo sapiens, T47D, concentration which inhibits 0.15 nM R5020-mediated proliferation by 50%; for Cell Proliferation, Antagonist Format % inhibition: maximum % inhibition, 0.15 nM R5020
Method: Human T-47D breast cells grown in nutrient media were incubated with the standard progestin R5020 alone or with R5020 plus test compound and then assessed by standard procedures for proliferation using incorporation of [^3 H]-thymidine as the measurement. […] The maximum % inhibition (a measure of the efficacy of the compounds) is also given. In the agonist format of this assay the compounds were tested at concentrations ranging from 0.01 to 10 nM and the maximum % stimulation at any dose is listed in Table 3.

Compound: CC1=[N+]([O-])C2(CC1)CCC1C3CCC4=CC(=O)CCC4=C3C(c3ccc(N(C)C)cc3)CC12C (stereo not drawn) [II 4-Me2 N H O H -- CH3, 3',4'-dihydro-11β-(4-(N,N-dimethylamino)phenyl)-5'-methyl-1'-oxo-spiro[estra-4,9-dien-17β,2'(2'H)-pyrrole]-3-one]
- IC50 [1]: 10.2 nM
- separation of progestin and glucocorticoid receptor affinity (progestin receptor (rPR); in words): excellent separation of progestin and glucocorticoid receptor affinity
- Ratio PR/GR (progestin receptor (rPR)): 78.5
- Relative Binding Affinity, rPR, Relative Affinity (Progesterone) (progestin receptor (rPR)): 157

Compound: CN(C)c1ccc([C@H]2C[C@@]3(C)[C@@H](CC[C@]3(CCCO)[N+](=O)[O-])[C@@H]3CCC4=CC(=O)CCC4=C32)cc1 [I 4-Me2 N H O H --(CH2)3 OH, 11β-[4-(N,N-Dimethylamino)phenyl]-17α-(3-hydroxypropyl)-17β-nitroestra-4,9-dien-3-one]
- IC50 [1]: 4.1 nM
- Ratio PR/GR (progestin receptor (rPR)): 2.3
- Relative Binding Affinity, rPR, Relative Affinity (Progesterone) (progestin receptor (rPR)): 170
- EC50 (human T-47D breast cells): 12 nM
- Cell Proliferation, Antagonist Format % inhibition (human T-47D breast cells): 89%

Compound: CC(=O)c1ccc([C@H]2C[C@@]3(C)[C@@H](CC[C@]3(CCCO)[N+](=O)[O-])[C@@H]3CCC4=CC(=O)CCC4=C32)cc1 [I 4-CH3 CO H O H --(CH2)3 OH, 11β-(4-Acetylphenyl)-17α-(3-hydroxypropyl)-17β-nitroestra-4,9-dien-3-one]
- IC50 [1]: 16 nM
- Ratio PR/GR (progestin receptor (rPR)): 17.7
- Relative Binding Affinity, rPR, Relative Affinity (Progesterone) (progestin receptor (rPR)): 53
- EC50 (human T-47D breast cells): 175 nM
- Cell Proliferation, Antagonist Format % inhibition (human T-47D breast cells): 96%

Compound: CC(=O)c1ccc([C@H]2C[C@@]3(C)[C@@H](CC[C@]3(/C=C/CO)[N+](=O)[O-])[C@@H]3CCC4=CC(=O)CCC4=C32)cc1 [I 4-CH3 CO H O H CH=CHCH2 OH, 11β-(4-acetylphenyl)-17α-(E-3-hydroxy-1-propenyl)-17β-nitroestra-4,9-dien-3-one]
- IC50 [1]: 26.1 nM
- Ratio PR/GR (progestin receptor (rPR)): 6.5
- Relative Binding Affinity, rPR, Relative Affinity (Progesterone) (progestin receptor (rPR)): 26
- EC50 (human T-47D breast cells): 122 nM
- Cell Proliferation, Antagonist Format % inhibition (human T-47D breast cells): 86%

Compound: CC#C[C@]1([N+](=O)[O-])CC[C@H]2[C@@H]3CCC4=CC(=O)CCC4=C3[C@@H](c3ccc(C(C)=O)cc3)C[C@@]21C [I 4-CH3 CO H O H --CC--CH3, 11β-(4-Acetylphenyl)-17β-nitro-17α-(1-propynyl)estra-4,9-dien-3-one]
- IC50 [1]: 0.8 nM
- Ratio PR/GR (progestin receptor (rPR)): 7.7
- Relative Binding Affinity, rPR, Relative Affinity (Progesterone) (progestin receptor (rPR)): 153
- EC50 (human T-47D breast cells): 3.3 nM
- Cell Proliferation, Antagonist Format % inhibition (human T-47D breast cells): 90%

Reference: patent publication US6015805A, “17β-nitro-11β-arylisteroids and their derivatives having agonist or antagonist hormonal properties” (Research Triangle Research North Carolina, priority 1999, dated 2000)
